From patent US4080467A, “Pharmaceutical compositions comprising 1,3-dithiolan-2-ylidene malonate derivatives” (Nihon Nohyaku Co., Ltd., priority 1976, dated 1978)

Key:
[1] = test system: Acute Liver Damage associated with Centrilobular Necrosis (carbon tetrachloride); assay: Protective effect on acute liver damage associated with centrilobular necrosis (carbon tetrachloride model); format: in vivo, mice (four-week-old male, dd strain); details: 250 mg/kg oral 6 h before CCl4, average of 5 to 6 mice; for p-GPT (plasma glutamic-pyruvic transaminase activity): 24 h after CCl4, values over 1,000 regarded as 1,000; for Liver Damage Index: 0 normal, 2 slightly recognized, 4 clearly observable damage, 6 heavy damage
Description: Carbon tetrachloride (CCl4) administration induces centrilobular necrosis of the liver associated with loss of diphosphopyridine nucleotide, hepatic glycogen, coenzyme A and increase in neutral fat. Release of several enzymes from the hepatocytes, and increases of enzyme activities in the plasma are recognized as the result of the damage of the liver. A suitable means for evaluating the degree of damage induced by CCl4 or the degree of protection afforded by drugs is to study the plasma glutamic-pyruvic transaminase (p-GPT) activity.
Method: The test compounds were dissolved or suspended in olive oil and administered orally at the dose of 250 mg/kg to the mice (Four-week-old male mice-dd strain). After 6 hours, CCl4 was administered orally (0.05 ml/kg as olive oil solution). Animals were killed 24 hours after CCl4 administration, and the liver was grossly observed. The plasma was obtained by centrifugation. Activities of p-GPT were determined by the method of Reitman and Frankel and expressed in Karmen units.
Score for liver damage was as follows: […]
4 Clearly observable damage
Each figure indicates average of 5 to 6 mice. Values of p-GPT over 1,000 Karmen unit regarded as 1,000 for calculation of average for convenience.

[2] = Effect on glucose metabolism (blood sugar after glucose load); format: in vivo, mice; details: for Blood Sugar: 250 mg/kg oral 6 h before glucose 4.0 g/kg
Protocol: The test compounds dissolved in olive oil and administered orally at the dose of 250 mg/kg to the mice. After 6 hours, 4.0 g/kg of glucose was orally administered. The same amount of glucose was given to the control animals. 0.02 ml of blood was taken from caudal vein of the mice at 30, 60, 90 and 120 min. after glucose administration. Blood sugar was measured by the procedure of Somogyi-Nelson. Number of animals used was 5 to 6 mice for each treatment.

[3] = test system: bile flow and biliary salt; assay: Cholagogic action: bile flow and excretion of biliary salt; format: in vivo, male rat (4 week-aged, SD-JCL strain); details: 200 mg/kg oral; for bile flow / excretion of biliary salt: before treatment = 100
Protocol: The male rat (4 week-aged, SD-JCL strain) was anesthetized with sodium pentobarbital (37.5 mg/kg, intraperitoneal injection). The abdominal cavity was opened through a midline incision. The common bile duct was catheterized with polyethylene tube o.d. 0.8 mm. The catheter was brought to the outside through the abdominal incision wound prior to closing. Bile was collected from the catheter continuously with time intervals of one hour. The quantity of bile produced in one hour was determined by weighing and that of biliary salt was determined by enzymatic method (Ikagaku Jikkenho Koza 1B, Biological Constituents II, edited by Tamio YAMAKAWA). The amount of biliary salts was represented as cholic acid equivalent.
In the representation of the results, the quantities of bile and biliary salts produced in one hour prior to the administration of drug were taken as 100. The compound of this invention was orally administered at the dose of 200 mg/kg. As reference anethol trithion was used.

Compound: CCOCCOC(=O)C(C(=O)OC(C)C)=C1SCCS1 [Compound 24]
- p-GPT (plasma glutamic-pyruvic transaminase activity) [1]: 152 Karmen units
- Liver Damage Index [1]: 1.2
- Blood Sugar (percent of 0 min value) ([2]; 0 min): 100%
- Blood Sugar ([2]; 0 min): 135 ± 13.2 mg/dL
- Blood Sugar ([2]; 30 min): 248 ± 20.2 mg/dL
- Blood Sugar ([2]; 60 min): 214 ± 18.8 mg/dL
- Blood Sugar ([2]; 90 min): 173 ± 24.4 mg/dL
- Blood Sugar ([2]; 120 min): 140 ± 16.3 mg/dL
- Blood Sugar (percent of 0 min value) ([2]; 30 min): 184%
- Blood Sugar (percent of 0 min value) ([2]; 60 min): 158%
- Blood Sugar (percent of 0 min value) ([2]; 90 min): 128%
- Blood Sugar (percent of 0 min value) ([2]; 120 min): 104%

Compound: CCOC(=O)C(C(=O)OC(C)C)=C1SCC[S+]1[O-] (centres unmarked) [Compound 35]
- p-GPT (plasma glutamic-pyruvic transaminase activity) [1]: 152 Karmen units
- Liver Damage Index [1]: 0.8

Compound: COCCOC(=O)C(C(=O)OCCOC)=C1SCCS1 [Compound 15, di(methoxyethyl) 1,3-dithiolan-2-ylidene malonate]
- p-GPT (plasma glutamic-pyruvic transaminase activity) [1]: 85 Karmen units
- Liver Damage Index [1]: 1.5

Compound: CCOCCOC(=O)C(C(=O)OC(C)C)=C1SCC[S+]1[O-] (centres unmarked) [Compound 36]
- p-GPT (plasma glutamic-pyruvic transaminase activity) [1]: 210 Karmen units
- Liver Damage Index [1]: 1.4

Compound: CCC(C)OC(=O)C(C(=O)OC(C)CC)=C1SCCS1 (centres unmarked) [Compound 7]
- p-GPT (plasma glutamic-pyruvic transaminase activity) [1]: 102 Karmen units
- Liver Damage Index [1]: 1.2

Compound: CCCCOC(=O)C(C(=O)OCCCC)=C1SCCS1 [Compound 5]
- p-GPT (plasma glutamic-pyruvic transaminase activity) [1]: 322 Karmen units
- Liver Damage Index [1]: 3.0

Compound: CSC(=O)C(C(=O)SC)=C1SCCS1 [Compound 11]
- p-GPT (plasma glutamic-pyruvic transaminase activity) [1]: 750 Karmen units
- Liver Damage Index [1]: 2.5

Compound: CCSC(=O)C(C(=O)SCC)=C1SCCS1 [Compound 12]
- p-GPT (plasma glutamic-pyruvic transaminase activity) [1]: 36 Karmen units
- Liver Damage Index [1]: 1.0
- Blood Sugar (percent of 0 min value) ([2]; 0 min): 100%
- Blood Sugar ([2]; 0 min): 141 ± 11.3 mg/dL
- Blood Sugar ([2]; 30 min): 264 ± 21.5 mg/dL
- Blood Sugar ([2]; 60 min): 225 ± 17.2 mg/dL
- Blood Sugar ([2]; 90 min): 167 ± 15.6 mg/dL
- Blood Sugar ([2]; 120 min): 142 ± 13.2 mg/dL
- Blood Sugar (percent of 0 min value) ([2]; 30 min): 187%
- Blood Sugar (percent of 0 min value) ([2]; 60 min): 160%
- Blood Sugar (percent of 0 min value) ([2]; 90 min): 118%
- Blood Sugar (percent of 0 min value) ([2]; 120 min): 100%

Compound: COC(=O)C(C(=O)OC)=C1SCC[S+]1[O-] (centres unmarked) [Compound 29]
- p-GPT (plasma glutamic-pyruvic transaminase activity) [1]: 222 Karmen units
- Liver Damage Index [1]: 0.6

Compound: CC(C)COC(=O)C(C(=O)OC(C)C)=C1SCCS1 [Compound 23]
- p-GPT (plasma glutamic-pyruvic transaminase activity) [1]: 102 Karmen units
- Liver Damage Index [1]: 1.0

Compound: COC(=O)C(C(=O)OC(C)C)=C1SCCS1 [Compound 19, Methyl isopropyl 1,3-dithiolan-2-ylidene malonate]
- p-GPT (plasma glutamic-pyruvic transaminase activity) [1]: 89 Karmen units
- Liver Damage Index [1]: 1.0

Compound: COC(=O)C(C(=O)OC)=C1SCCS1 [Compound 1]
- p-GPT (plasma glutamic-pyruvic transaminase activity) [1]: 200 Karmen units
- Liver Damage Index [1]: 2.2

Compound: CC(C)CCOC(=O)C(C(=O)OCCC(C)C)=C1SCCS1 [Compound 10]
- p-GPT (plasma glutamic-pyruvic transaminase activity) [1]: 350 Karmen units
- Liver Damage Index [1]: 3.3

Compound: CCOCCOC(=O)C(C(=O)OCCOCC)=C1SCCS1 [Compound 16]
- p-GPT (plasma glutamic-pyruvic transaminase activity) [1]: 150 Karmen units
- Liver Damage Index [1]: 1.0

Compound: CCOC(=O)C(C(=O)SC(C)C)=C1SCCS1 [Compound 27]
- p-GPT (plasma glutamic-pyruvic transaminase activity) [1]: 18 Karmen units
- Liver Damage Index [1]: 0.4

Compound: CCCCSC(=O)C(C(=O)OCC)=C1SCCS1 [Compound 28]
- p-GPT (plasma glutamic-pyruvic transaminase activity) [1]: 31 Karmen units
- Liver Damage Index [1]: 0.8

Compound: CCCOC(=O)C(C(=O)OCCC)=C1SCCS1 [Compound 3, Di-n-propyl 1,3-dithiolan-2-ylidene malonate]
- p-GPT (plasma glutamic-pyruvic transaminase activity) [1]: 26 Karmen units
- Liver Damage Index [1]: 1.0

Compound: CCOCCOC(=O)C(C(=O)OCC)=C1SCCS1 [Compound 25]
- p-GPT (plasma glutamic-pyruvic transaminase activity) [1]: 85 Karmen units
- Liver Damage Index [1]: 1.0

Compound: NC(=O)CCCCC1CCSS1 (centres unmarked) [Thioctic acid amide, thioctic acid amide, reference compound]
- p-GPT (plasma glutamic-pyruvic transaminase activity) [1]: 763 Karmen units
- Liver Damage Index [1]: 4.8

Compound: CC(C)(C)OC(=O)C(C(=O)OC(C)(C)C)=C1SCCS1 [Compound 8]
- p-GPT (plasma glutamic-pyruvic transaminase activity) [1]: 230 Karmen units
- Liver Damage Index [1]: 1.2

Compound: CCOC(=O)C(C(=O)OC)=C1SCCS1 [Compound 18]
- p-GPT (plasma glutamic-pyruvic transaminase activity) [1]: 240 Karmen units
- Liver Damage Index [1]: 1.4

Compound: COC(=O)C(C(=O)OCC(C)C)=C1SCC[S+]1[O-] (centres unmarked) [Compound 34]
- p-GPT (plasma glutamic-pyruvic transaminase activity) [1]: 102 Karmen units
- Liver Damage Index [1]: 1.0

Compound: COC(=O)C(C(=O)OCC(C)C)=C1SCCS1 [Compound 20]
- p-GPT (plasma glutamic-pyruvic transaminase activity) [1]: 62 Karmen units
- Liver Damage Index [1]: 0.2
- bile flow ([3]; 1 hour after treatment): 113±4.3
- excretion of biliary salt ([3]; 1 hour after treatment): 104±11
- bile flow ([3]; 2 hours after treatment): 112±8.2
- excretion of biliary salt ([3]; 2 hours after treatment): 119±13
- bile flow ([3]; 3 hours after treatment): 106±6.3
- excretion of biliary salt ([3]; 3 hours after treatment): 120±17
- bile flow ([3]; 4 hours after treatment): 113±8.8
- excretion of biliary salt ([3]; 4 hours after treatment): 113±18
- bile flow ([3]; 5 hours after treatment): 93±3.8
- excretion of biliary salt ([3]; 5 hours after treatment): 82±7.3
- Amount of total biliary salts excreted for 5 hours relative to control ([3]; versus control): 1.55 times
- Quantity of total excreted bile for 5 hours relative to control ([3]; versus control): 1.14 times

Compound: CCCCOCCOC(=O)C(C(=O)OCCOCCCC)=C1SCCS1 [Compound 17]
- p-GPT (plasma glutamic-pyruvic transaminase activity) [1]: 242 Karmen units
- Liver Damage Index [1]: 3.0

Compound: CCCCCOC(=O)C(C(=O)OCCCCC)=C1SCCS1 [Compound 9]
- p-GPT (plasma glutamic-pyruvic transaminase activity) [1]: 550 Karmen units
- Liver Damage Index [1]: 3.2

Compound: CCCCSC(=O)C(C(=O)SCCCC)=C1SCCS1 [Compound 14]
- p-GPT (plasma glutamic-pyruvic transaminase activity) [1]: 241 Karmen units
- Liver Damage Index [1]: 1.4

Compound: CC(C)(C)OC(=O)C(C(=O)OC(C)(C)C)=C1SCC[S+]1[O-] (centres unmarked) [Compound 33]
- p-GPT (plasma glutamic-pyruvic transaminase activity) [1]: 212 Karmen units
- Liver Damage Index [1]: 1.4
